This test has as its target T1, Recombinant human Protein-tyrosine phosphatase1B (PTP1B) (Homo sapiens, UniProt P18031).
T1 construct: Recombinant human Protein-tyrosine phosphatase1B (PTP1B) (amino acid 1-322 Biomol, USA); purchased Biomol, USA
T1 sequence (P18031 1-322): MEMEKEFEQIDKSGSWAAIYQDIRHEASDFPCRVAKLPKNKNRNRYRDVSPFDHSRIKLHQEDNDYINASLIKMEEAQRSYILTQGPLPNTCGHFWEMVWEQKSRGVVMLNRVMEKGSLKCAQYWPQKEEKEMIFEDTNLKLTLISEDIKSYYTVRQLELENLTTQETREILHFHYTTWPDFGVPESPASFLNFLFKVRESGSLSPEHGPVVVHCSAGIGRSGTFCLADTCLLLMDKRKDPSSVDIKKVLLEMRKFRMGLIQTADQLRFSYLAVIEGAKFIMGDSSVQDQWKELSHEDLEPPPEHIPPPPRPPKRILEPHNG
Briefly: PTP1B enzyme inhibition assay (pNpp substrate). In kind it is biochemical. The following applies: inhibition of recombinant human PTP1B, pNpp 5 mM, 30 mins at 25° C; inhibitor concentration not given. How it is done:
Protein tyrosine phosphatase 1B (PTP1B) is an intracellular enzyme which functions by removing the phosphate groups from phosphorylated tyrosine residues of cellular proteins. PTP1B has been implicated as a negative regulator of insulin action and therefore is of therapeutic interest. The ability of the test compounds to inhibit the activity of PTP1B is determined using an enzyme inhibition assay.
The assay is performed using two independent substrates of PTP1B namely, p-nitrophenyl phosphate (pNpp) and the phosphorylated Epidermal growth factor receptor peptide (EGFR).
In the assay performed with pNpp, the action of PTP1B results in the release of p-nitrophenol, which is yellow in colour and can be measured at 410 nm. In the case of the assay using EGFR, action of PTP1B results in the release of free phosphate group. This is trapped using a reagent containing ammonium molybdate and malachite green resulting in a colored complex whose absorbance can be measured at 620 nm.
1× Assay buffer 50 mM HEPES (pH 7.4) • 1 mM EDTA • 1 mM DTT • 0.05% Igepal® CA-630
Dilute recombinant Human PTP1B 1:150 in 1× Assay buffer for 10× stock,
Prepare 10× stock of pNpp (50 mM) in 1× Assay buffer
Prepare 100× stock in 100% DMSO, dilute 1:10 with 1× Assay buffer to get 10× stock in 10% DMSO.
PTP1B inhibition assay was performed using recombinant human PTP1B. PTP1B (0.016 μg/well) was incubated in a buffer containing 50 mM HEPES, 1 mM DTT, 1 mM EDTA and 0.05% Igepal® CA-630 with or without inhibitor (10× stock, final DMSO concentration is 1%) for 30 mins at 25° C. This was followed by addition of p-Nitrophenyl phosphate (pNpp) substrate (5 mM). The final volume of the reaction mixture is 50 μL and experiment was done in 96 well half area plate. The incubation was continued for 30 mins at 25° C. The conversion of pNpp to p-Nitrophenol (pNp) was measured at 410 nm in Spectramaxplus Spectrophotometer (Molecular Devices, USA).

As to `CSc1ccc(-c2ccc(C=C3SC(Nc4ccc(CC(=O)NS(=O)(=O)c5ccc(C(F)(F)F)cc5)cc4)=NC3=O)c(F)c2)cc1.[Na]` [Compound 239, N-(2-{4-[5-(3-Fluoro-4′-methylsulfanyl-biphenyl-4-ylmethylene)-4-oxo-4,5-dihydro-thiazol-2-ylamino]-phenyl}-acetyl)-4-trifluoromethyl-benzenesulfonamide sodium salt], the “Activity Score” value was “(+) (+ = 10-20% inhibition)”.
As for `Cc1ccc(S(=O)(=O)NC(=O)Cc2ccc(NC3=NC(=O)C(=Cc4ccc(-c5ccc(O)cc5)cc4)S3)cc2)cc1.[Na].[Na]` [Compound 212, N-(2-{4-[5-(4′Hydroxy-biphenyl-4-ylmethylene)-4-oxo-4,5-dihydro-thiazol-2-ylamino]-phenyl}-acetyl)-4-methyl-benzenesulfonamide di-sodium salt], the entry is “(++) (++ = 20-50% inhibition)”.
As for “(4-{2-[5-(3-Benzyloxy-naphthalen-2-ylmethylene)-4-oxo-4,5-dihydro-thiazol-2-ylamino]-acetyl amino}-phenyl)-acetic acid [Compound 22]”, the entry is “(+++) (+++ = >50% inhibition)”; as for `CC(C)(C)OC(=O)Cn1cc(C=C2SC(Nc3ccc(CC(=O)O)cc3)=NC2=O)c2ccccc21` [Compound 11, {4-[5-(1-tert-Butoxycarbonylmethyl-1H-indol-3-ylmethylene)-4-oxo-4,5-dihydro-thiazol-2-ylamino]-phenyl}-acetic acid], “(++) (++ = 20-50% inhibition)”; as for `O=C(O)Cc1ccc(NC2=NC(=O)C(=Cc3cc4ccccc4cc3OCC3CCCO3)S2)cc1` (stereo not drawn) [Compound 142, (4-{4-Oxo-5-[3-(tetrahydro-furan-2-ylmethoxy)-naphthalen-2-ylmethylene]-4,5-dihydro-thiazol-2-ylamino}-phenyl)-acetic acid], “(++) (++ = 20-50% inhibition)”.
As for `O=C(O)Cc1ccc(NC2=NC(=O)C(=Cc3cccc(-n4cncn4)c3)S2)cc1` [Compound 87, {4-[4-Oxo-5-(3-[1,2,4]triazol-1-yl-benzylidene)-4,5-dihydro-thiazol-2-ylamino]-phenyl}-acetic acid], the entry is “(+) (+ = 10-20% inhibition)”; as for “(4-{5-[3-(3-Methoxy-benzyloxy)-naphthalen-2-ylmethylene]-4-oxo-4-4,5-dihydro-thiazol-2-ylamino}-phenyl)-sodium acetate [Compound 181]”, “(+) (+ = 10-20% inhibition)”.
`Cc1ccc(S(=O)(=O)NC(=O)Cc2ccc(NC3=NC(=O)C(=Cc4ccc(N5CCN(c6ccccn6)CC5)cc4)S3)cc2)cc1.[Na]` [Compound 173, 4-Methyl-N-[2-(4-{4-oxo-5-[4-(4-pyridin-2-yl-piperazin-1-yl)-benzylidene]-4,5-dihydro-thiazol-2-ylamino}-phenyl)-acetyl]-benzenesulfonamide sodium salt]: the “Activity Score” value was “(+++) (+++ = >50% inhibition)”.
As for `O=C([O-])CCc1ccc(NC2=NC(=O)C(=Cc3ccc4cc(F)ccc4c3)S2)cc1.[Na+]` [Compound 205, 3-{4-[5-(6-Fluoro-naphthalen-2-ylmethylene)-4-oxo-4,5-dihydro-thiazol-2-ylamino]-phenyl}-sodium propionate], the entry is “(+++) (+++ = >50% inhibition)”.
As for `O=C(Cc1ccc(NC2=NC(=O)C(=Cc3ccc(-n4cccn4)cc3)S2)cc1)NS(=O)(=O)c1ccccc1` [Compound 103, N-(2-{4-[4-Oxo-5-(4-pyrazol-1-yl-benzylidene)-4,5-dihydro-thiazol-2-ylamino]-phenyl}-acetyl)-benzenesulfonamide], the entry is “(+) (+ = 10-20% inhibition)”.
Then `CCC(C(=O)O)c1ccc(NC2=NC(=O)C(=Cc3cc4ccccc4cc3OCc3ccccc3)S2)cc1` (stereo not drawn) [Compound 48, 2-{4-[5-(3-Benzyloxy-naphthalen-2-ylmethylene)-4-oxo-4,5-dihydro-thiazol-2-ylamino]-phenyl}-butyric acid], with “(+++) (+++ = >50% inhibition)”; and `O=C(O)Cc1ccc(NC2=NC(=O)C(=Cc3cccc(N4CCN(c5ccccn5)CC4)c3)S2)cc1` [Compound 90, (4-{4-Oxo-5-[3-(4-pyridin-2-yl-piperazin-1-yl)-benzylidene]-4,5-dihydro-thiazol-2-ylamino}-phenyl)-acetic acid], with “(+++) (+++ = >50% inhibition)”; and `CC(=C1SC(Nc2ccc(CC(=O)O)cc2)=NC1=O)c1cc2ccccc2o1` [Compound 13, {4-[5-(1-Benzofuran-2-yl-ethylidene)-4-oxo-4,5-dihydro-thiazol-2-ylamino]-phenyl}-acetic acid], with “(++) (++ = 20-50% inhibition)”.
Consider `O=C(O)Cc1ccc(NC2=NC(=O)C(=Cc3ccc(-c4ccccc4)cc3)S2)cc1` [Compound 94, [4-(5-Biplenyl-4-ylmethylene-4-oxo-4,5-dihydro-thiazol-2-ylamino)-phenyl]-acetic acid], for which the “Activity Score” value was “(+) (+ = 10-20% inhibition)”.
As to `Cc1ccc(S(=O)(=O)NC(=O)Cc2ccc(NC3=NC(=O)C(=Cc4cc5ccccc5cc4OCc4ccccc4)S3)cc2)cc1.[Na]` [Compound 104, N-(2-{4-[5-(3-Benzyloxy-naphthalen-2-ylmethylene)-4-oxo-4,5-dihydro-thiazol-2-ylamino]-phenyl}-acetyl)-4-methyl-benzenesulfonamide sodium salt], the “Activity Score” value was “(++) (++ = 20-50% inhibition)”.
As to `O=C(O)Cc1ccc(NC2=NC(=O)C(=Cc3cccn3-c3ccccc3)S2)cc1` [Compound 62, {4-[4-Oxo-5-(1-phenyl-1H-pyrrol-2-ylmethylene)-4,5-dihydro-thiazol-2-ylamino]-phenyl}-acetic acid], the “Activity Score” value is listed as “(+++) (+++ = >50% inhibition)”.
For `CC(C(=O)O)c1ccc(NC2=NC(=O)C(=Cc3ccc(-c4ccccc4)cc3)S2)cc1` (stereo not drawn) [Compound 54, 2-[4-(5-Biphenyl-4-ylmethylene-4-oxo-4,5-dihydro-thiazol-2-ylamino)-phenyl]-propionic acid], the “Activity Score” value was “(+++) (+++ = >50% inhibition)”.
Then `O=C(O)COc1ccc2cc(C=C3SC(Nc4ccc(CC(=O)O)cc4)=NC3=O)ccc2c1` [Compound 163, {4-[5-(6-Carboxymethoxy-naphthalen-2-ylmethylene)-4-oxo-4,5-dihydro-thiazol-2-ylamino]-phenyl}-acetic acid], with “(+++) (+++ = >50% inhibition)”; and `O=C(O)Cc1ccc(NC2=NC(=O)C(=Cc3ccc(-c4ccc(O)cc4)cc3)S2)cc1` [Compound 199, {4-[5-(4′-Hydroxy-biphenyl-4-ylmethylene)-4-oxo-4,5-dihydro-thiazol-2-ylamino]-phenyl}-acetic acid], with “(+++) (+++ = >50% inhibition)”.
Then `O=C(O)Cc1ccc(NC2=NC(=O)C(=Cc3cc4ccccc4cc3OCc3ccc(F)cc3)S2)cc1` [Compound 85, (4-{5-[3-(4-Fluoro-benzyloxy)-naphthalen-2-ylmethylene]-4-oxo-4,5-dihydro-thiazol-2-ylamino}-phenyl)-acetic acid], with “(+++) (+++ = >50% inhibition)”.
As for `O=C(O)Cc1ccc(NC2=NC(=O)C(=Cc3cccc(-n4cccc4)c3)S2)cc1` [Compound 51, {4-[4-Oxo-5-(3-pyrrol-1-yl-benzylidene)-4,5-dihydro-thiazol-2-ylamino]-phenyl}-acetic acid], the entry is “(+++) (+++ = >50% inhibition)”; as for `CC(=C1SC(Nc2ccc(CC(=O)O)cc2)=NC1=O)c1cccc(-n2cccc2)c1` [Compound 61, (4-{4-Oxo-5-[1-(3-pyrrol-1-yl-phenyl)-ethylidene]-4,5-dihydro-thiazol-2-ylamino}-phenyl)-acetic acid], “(+) (+ = 10-20% inhibition)”.
For `O=C(O)Cc1ccc(NC2=NC(=O)C(=Cc3cccc(-n4cnc5ccccc54)c3)S2)cc1` [Compound 88, {4-[5-(3-Benzoimidazol-1-yl-benzylidene)-4-oxo-4,5-dihydro-thiazol-2-ylamino]-phenyl}-acetic acid], the “Activity Score” value is listed as “(+++) (+++ = >50% inhibition)”.
Then `CC(C)(C)c1cc(C=C2SC(Nc3ccc(CC(=O)O)cc3)=NC2=O)cc(C(C)(C)C)c1O` [Compound 37, {4-[5-(3,5-Di-tert-butyl-4-hydroxy-benzylidene)-4-oxo-4,5-dihydro-thiazol-2-ylamino]-phenyl}-acetic acid], with “(+++) (+++ = >50% inhibition)”.

The values above are taken from patent publication US20090088432A1, “Thiazolinones and Oxazolinones and their Use as Ptp1b Inhibitors” (priority 2005, published 2009).
